Counter-ions that a name gives are not always drawn.
Tested on: NRG1-ERBB4 signaling
Experiment: Nrg1-ERBB4-PIK3R1 split TEV co-culture compound screen of the NIH Clinical Collection
Type: cell-based, human
[1] = compounds at 10 μM, 24 h, PC12 split TEV assay cells co-cultured with Nrg1-expressing PC12 cells, analysed with cellHTS2
[2] = NIH Clinical Collection NCC-003 raw data, compounds ranked by Z-score, 'flagged' given instead of a Z-score
[3] = compound screen of the NIH Clinical Collection, sheet raw data NCC-003, compounds ranked by Z-score

SMILES	Z-SCORE [1]	Z-SCORE [2]	Z-SCORE [3]
Cc1cnc(C(=O)NCCc2ccc(S(=O)(=O)NC(=O)NC3CCCCC3)cc2)cn1 [GLIPIZIDE, reference compound]	0.73	–	–
CC(C)C[C@H](NC(=O)[C@@H](COC(C)(C)C)NC(=O)[C@H](Cc1ccc(O)cc1)NC(=O)[C@H](CO)NC(=O)[C@H](Cc1c[nH]c2ccccc12)NC(=O)[C@H](Cc1cnc[nH]1)NC(=O)[C@@H]1CCC(=O)N1)C(=O)N[C@@H](CCCNC(=N)N)C(=O)N1CCC[C@H]1C(=O)NNC(N)=O [GOSERELIN ACETATE]	–	-1.23	–
COC(=O)N1CCN(C(=O)Cc2ccc(Cl)c(Cl)c2)C(CN2CCCC2)C1 (centres unmarked) [GR 89696]	–	–	1.46
CN1C2CCCC1CC(NC(=O)c1nn(C)c3ccccc13)C2 (centres unmarked) [GRANISETRON HCl]	–	–	0.21
CCOC(=O)c1ccc(OC(=O)CCCCCN=C(N)N)cc1.CS(=O)(=O)O [Gabexate mesylate]	–	–	-0.47
COc1ccc2c3c1O[C@H]1C[C@@H](O)C=C[C@@]31CCN(C)C2 [Galanthamine]	–	–	1.13
Nc1nc(O)c2ncn(COC(CO)CO)c2n1 [Ganciclovir, reference compound]	-0.19	–	–
COc1c(N2CCNC(C)C2)c(F)cc2c(=O)c(C(=O)O)cn(C3CC3)c12 (centres unmarked) [Gatifloxacin, reference compound]	1.07	–	–
COc1ccc(Cl)cc1C(=O)NCCc1ccc(S(=O)(=O)NC(=O)NC2CCCCC2)cc1 [Glyburide, reference compound]	-0.5	–	–
C[N+]1(C)CCC(OC(=O)C(O)(c2ccccc2)C2CCCC2)C1 (centres unmarked) [Glycopyrrolate, reference compound]	-0.44	–	0
COC1=CC(=O)C[C@@H](C)[C@]12Oc1c(Cl)c(OC)cc(OC)c1C2=O [Griseofulvin, reference compound]	0.64	–	–
C[C@@H]1C[C@H]2[C@@H]3C[C@H](F)C4=CC(=O)C(Cl)=C[C@]4(C)[C@@]3(F)[C@@H](O)C[C@]2(C)[C@@]1(O)C(=O)CO.O [HALOMETASONE MONOHYDRATE]	–	–	-0.25
COC(=O)C[C@](O)(CCCC(C)(C)O)C(=O)O[C@@H]1C(OC)=C[C@]23CCCN2CCc2cc4c(cc2[C@H]13)OCO4 [HOMOHARRINGTONINE]	–	flagged	–
C=CCc1ccc(O)c(-c2ccc(O)c(CC=C)c2)c1 [HONOKIOL]	–	flagged	–
CC(CCCCC(=O)Nc1ccc(C(F)(F)F)cc1)NCCc1cnc[nH]1 (centres unmarked) [HTMT]	–	–	-0.18
C/C=C1\[C@H]2C=C(C)C[C@]1(N)c1ccc(=O)[nH]c1C2 [HUPERZINE A]	–	–	-0.3
C[C@]12CCC(=O)C=C1CC[C@@H]1[C@@H]2[C@@H](O)C[C@@]2(C)[C@H]1CC[C@]2(O)C(=O)COC(=O)CCC(=O)O [HYDROCORTISONE HEMISUCCINATE, reference compound]	-1.64	–	–
C[C@]12CCC(=O)C=C1CC[C@@H]1[C@@H]2[C@@H](O)C[C@@]2(C)[C@H]1CC[C@]2(O)C(=O)CO [HYDROCORTISONE, reference compound]	-1.61	–	–
NS(=O)(=O)c1cc2c(cc1C(F)(F)F)NCNS2(=O)=O [HYDROFLUMETHIAZIDE, reference compound]	-0.47	–	–
O=c1c(O[C@@H]2O[C@H](CO)[C@H](O)[C@H](O)[C@H]2O)c(-c2ccc(O)c(O)c2)oc2cc(O)cc(O)c12 [HYPEROSIDE]	–	–	0.68
O=C(CCCN1CCC(O)(c2ccc(Cl)cc2)CC1)c1ccc(F)cc1 [Haloperidol]	–	–	-0.98
Oc1c(Cl)cc(Cl)c(Cl)c1Cc1c(O)c(Cl)cc(Cl)c1Cl [Hexachlorophene, reference compound]	flagged	–	–
COc1ccc(CCN)cc1OC [Homoveratrylamine]	–	–	-0.37

SMILES	Z-SCORE [1]	Z-SCORE [2]	Z-SCORE [3]
NS(=O)(=O)c1cc2c(cc1Cl)NCNS2(=O)=O [Hydrochlorothiazide, reference compound]	-0.03	–	–
CC(C)Cc1ccc(C(C)C(=O)O)cc1 (centres unmarked) [IBUPROFEN, reference compound]	0.27	–	–
COc1ccc(-c2oc3c(CC=C(C)C)c(O[C@@H]4O[C@H](CO)[C@@H](O)[C@H](O)[C@H]4O)cc(O)c3c(=O)c2O[C@@H]2O[C@@H](C)[C@H](O)[C@@H](O)[C@H]2O)cc1 [ICARIIN]	–	–	-0.37
CC(=O)[C@]1(O)Cc2c(O)c3c(c(O)c2[C@@H](O[C@H]2C[C@H](N)[C@H](O)[C@H](C)O2)C1)C(=O)c1ccccc1C3=O [IDARUBICIN HCl]	–	flagged	–
COC1=C(OC)C(=O)C(CCCCCCCCCCO)=C(C)C1=O [IDEBENONE]	–	–	2.79
CC1Cc2ccccc2N1NC(=O)c1ccc(Cl)c(S(N)(=O)=O)c1 (centres unmarked) [INDAPAMIDE, reference compound]	0.07	–	–
CC(C)(C)NC(=O)[C@@H]1CN(Cc2cccnc2)CCN1C[C@@H](O)C[C@@H](Cc1ccccc1)C(=O)N[C@H]1c2ccccc2C[C@H]1O [INDINAVIR SULPHATE]	–	–	0.35
CC(C)[N+]1(C)[C@@H]2CC[C@H]1C[C@@H](OC(=O)C(CO)c1ccccc1)C2.O.[Br-] (some centres unmarked) [IPRATROPIUM BROMIDE MONOHYDRATE, reference compound]	0.31	–	–
CC(C)Oc1ccc2c(=O)c(-c3ccccc3)coc2c1 [IPRIFLAVONE]	–	–	1.41
Nc1nc(N)nc(-c2cc(Cl)ccc2Cl)n1 [IRSOGLADINE MALEATE]	–	-1.2	–
COC(=O)C1=C(C)NC(C)=C(C(=O)OC(C)C)C1c1cccc2nonc12 (centres unmarked) [ISRADIPINE]	–	-1.94	–
O=C([O-])C[C@H](O)C[C@H](O)/C=C/c1c(C2CC2)nc2ccccc2c1-c1ccc(F)cc1.O=C([O-])C[C@H](O)C[C@H](O)/C=C/c1c(C2CC2)nc2ccccc2c1-c1ccc(F)cc1.[Ca+2] [ITAVASTATIN Ca]	–	flagged	–
COc1ccc(C(=O)NCc2ccc(OCCN(C)C)cc2)cc1OC.Cl [ITOPRIDE HCl]	–	–	1.68
CC(C(O)c1ccc(O)cc1)N1CCC(Cc2ccccc2)CC1 (centres unmarked) [Ifenprodil]	–	–	1.07
CN(C)C(=O)C(CCN1CCC(O)(c2ccc(Cl)cc2)CC1)(c1ccccc1)c1ccccc1 [Imodium, reference compound]	-0.18	–	–
CNC1CC(c2ccc(Cl)c(Cl)c2)c2ccccc21 (centres unmarked) [Indatraline]	–	–	0.28
CC(C)NCC(O)COc1cccc2ccccc12 (centres unmarked) [Inderal, reference compound]	-0.81	–	–
O=C1Nc2ccccc2/C1=C1/Nc2ccccc2C1=O [Indirubin]	–	–	0.67
COc1ccc2c(c1)c(CC(=O)O)c(C)n2C(=O)c1ccc(Cl)cc1 [Indomethacin]	–	–	0.08
NCCc1ccc(O)c(O)c1 [Intropin, reference compound]	0.13	–	–
CCCCC1=NC2(CCCC2)C(=O)N1Cc1ccc(-c2ccccc2-c2nnn[nH]2)cc1 [Irbesartan, reference compound]	4.26	–	4.26
NNC(=O)c1ccncc1 [Isoniazid, reference compound]	-0.38	–	–
O=c1c(O[C@@H]2O[C@H](CO)[C@@H](O)[C@H](O)[C@H]2O)c(-c2ccc(O)c(O)c2)oc2cc(O)cc(O)c12 [Isoquercitrin]	–	–	0.55

SMILES	Z-SCORE [1]	Z-SCORE [2]	Z-SCORE [3]
CC1=C(/C=C/C(C)=C/C=C/C(C)=C\C(=O)O)C(C)(C)CCC1 [Isotretinoin, reference compound]	-0.41	–	–
CC(C)NCC(O)c1ccc(O)c(O)c1 (centres unmarked) [Isuprel, reference compound]	-0.93	–	–
CCC(C)n1ncn(-c2ccc(N3CCN(c4ccc(OCC5COC(Cn6cncn6)(c6ccc(Cl)cc6Cl)O5)cc4)CC3)cc2)c1=O (centres unmarked) [Itraconazole, reference compound]	-3.6	-3.6	–
CC(C(=O)O)c1cccc(C(=O)c2ccccc2)c1 (centres unmarked) [KETOPROFEN, reference compound]	0.15	–	–
CN1CCC(=C2c3ccccc3CC(=O)c3sccc32)CC1 [KETOTIFEN FUMARATE]	–	–	-0.37
CO[C@@H]1[C@@H](O[C@@H]2O[C@H](C)[C@@H](O[C@H]3C[C@@](C)(O)[C@@H](OC(=O)CC(C)C)[C@H](C)O3)[C@H](N(C)C)[C@H]2O)[C@@H](CC=O)C[C@@H](C)[C@@H](O)/C=C/C=C/C[C@@H](C)OC(=O)C[C@H]1O [KITASAMYCIN]	–	–	1.6
OC(CCN1CCCC1)(c1ccccc1)C1CCCCC1 (centres unmarked) [Kemadrin, reference compound]	-0.51	–	–
CC(=O)N1CCN(c2ccc(OCC3COC(Cn4ccnc4)(c4ccc(Cl)cc4Cl)O3)cc2)CC1 (centres unmarked) [Ketoconazole]	–	–	-1.1
O=C(c1ccccc1)c1ccc2n1CCC2C(=O)O (centres unmarked) [Ketorolac tromethamine]	–	–	-0.4
N[C@@H](Cc1cc(I)c(Oc2cc(I)c(O)c(I)c2)c(I)c1)C(=O)O [L-THYROXINE, reference compound]	-0.07	–	–
CC(CCc1ccccc1)NCC(O)c1ccc(O)c(C(N)=O)c1 (centres unmarked) [LABETALOL HYDROCHLORIDE, reference compound]	-1.04	–	–
CCOC(=O)C1=C(C)NC(C)=C(C(=O)OCC)C1c1ccccc1/C=C/C(=O)OC(C)(C)C [LACIDIPINE]	–	–	-0.35
Nc1ccn([C@@H]2CS[C@H](CO)O2)c(=O)n1 [LAMIVUDINE, reference compound]	0.33	–	0.14
Nc1nnc(-c2cccc(Cl)c2Cl)c(N)n1 [LAMOTRIGINE]	–	–	0.3
Cc1c(OCC(F)(F)F)ccnc1C[S+]([O-])c1nc2ccccc2[nH]1 (centres unmarked) [LANSOPRAZOLE]	–	-1.16	–
CC(C)OC(=O)CCC/C=C\C[C@@H]1[C@@H](CC[C@@H](O)CCc2ccccc2)[C@H](O)C[C@@H]1O [LATANOPROST]	–	–	-0.3
N#Cc1ccc(C(c2ccc(C#N)cc2)n2cncn2)cc1 [LETROZOLE]	–	–	-1.06
O=C(O)COCCN1CCN([C@H](c2ccccc2)c2ccc(Cl)cc2)CC1 [LEVOCETIRIZINE]	–	–	0.15
C[C@H]1COc2c(N3CCN(C)CC3)c(F)cc3c(=O)c(C(=O)O)cn1c23 [LEVOFLOXACIN]	–	–	-0.28
C#C[C@]1(O)CC[C@H]2[C@@H]3CCC4=CC(=O)CC[C@@H]4[C@H]3CC[C@@]21CC [LEVONORGESTREL]	–	–	-1.05
CCN1CCC[C@H]1CNC(=O)c1cc(S(N)(=O)=O)ccc1OC [LEVOSULPIRIDE]	–	–	-0.53

Reference: PMC5653977 (EMBO Molecular Medicine, 2017)
